From US11912703B2, “6-azaindole compounds” (BRISTOL-MYERS SQUIBB COMPANY, priority 2017, dated 2024)
Read-outs that look alike come from different tables or passages of the source.

How the values were obtained:
[1] = molecular target: human TLR9 (Homo sapiens (Human), UniProt Q9NR96); test: TLR9 inhibition reporter assay (HEK-Blue SEAP);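 note: SEAP driven by IFN-β minimal promoter carrying five NF-κB and AP-1 sites, 22 h at 37 °C, compounds 0.05 nM–50 µM, inhibition scaled between agonist-plus-DMSO and reference-inhibitor wells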
Sequence of human TLR9 (Q9NR96 26-1032): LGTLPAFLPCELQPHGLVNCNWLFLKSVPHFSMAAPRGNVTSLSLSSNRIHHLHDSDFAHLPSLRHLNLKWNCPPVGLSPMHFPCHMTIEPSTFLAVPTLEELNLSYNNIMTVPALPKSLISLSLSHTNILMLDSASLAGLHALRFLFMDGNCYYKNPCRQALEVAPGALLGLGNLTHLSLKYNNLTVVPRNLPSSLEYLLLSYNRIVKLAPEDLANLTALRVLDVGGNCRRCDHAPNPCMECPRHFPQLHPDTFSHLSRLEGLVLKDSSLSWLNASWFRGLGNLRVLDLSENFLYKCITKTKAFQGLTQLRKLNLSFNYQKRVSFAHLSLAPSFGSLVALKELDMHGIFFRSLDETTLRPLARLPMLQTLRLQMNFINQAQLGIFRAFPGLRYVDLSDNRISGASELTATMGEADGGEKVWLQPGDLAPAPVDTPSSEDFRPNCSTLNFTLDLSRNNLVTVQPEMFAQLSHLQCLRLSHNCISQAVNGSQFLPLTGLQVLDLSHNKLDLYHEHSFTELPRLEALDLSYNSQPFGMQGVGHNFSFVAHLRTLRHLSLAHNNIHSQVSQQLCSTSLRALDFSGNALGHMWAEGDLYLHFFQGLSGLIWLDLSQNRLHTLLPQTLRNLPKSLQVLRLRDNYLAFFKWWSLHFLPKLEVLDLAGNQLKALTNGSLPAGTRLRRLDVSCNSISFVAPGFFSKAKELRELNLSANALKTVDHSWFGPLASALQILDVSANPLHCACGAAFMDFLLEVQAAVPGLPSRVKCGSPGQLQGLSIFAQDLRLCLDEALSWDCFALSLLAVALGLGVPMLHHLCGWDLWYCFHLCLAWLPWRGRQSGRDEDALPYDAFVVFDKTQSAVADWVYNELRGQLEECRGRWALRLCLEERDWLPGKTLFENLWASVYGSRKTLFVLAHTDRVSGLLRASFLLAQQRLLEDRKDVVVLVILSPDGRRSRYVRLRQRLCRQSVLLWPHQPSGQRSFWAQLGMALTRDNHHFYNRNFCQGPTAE

[2] = molecular target: human TLR7 (Homo sapiens (Human), UniProt Q9NYK1); test: TLR7 inhibition reporter assay (HEK-Blue SEAP); type: cell-based; conditions: HEK-Blue cells overexpressing human TLR7, gardiquimod 7.5 μM stimulation
Sequence of human TLR7 (Q9NYK1 27-1049): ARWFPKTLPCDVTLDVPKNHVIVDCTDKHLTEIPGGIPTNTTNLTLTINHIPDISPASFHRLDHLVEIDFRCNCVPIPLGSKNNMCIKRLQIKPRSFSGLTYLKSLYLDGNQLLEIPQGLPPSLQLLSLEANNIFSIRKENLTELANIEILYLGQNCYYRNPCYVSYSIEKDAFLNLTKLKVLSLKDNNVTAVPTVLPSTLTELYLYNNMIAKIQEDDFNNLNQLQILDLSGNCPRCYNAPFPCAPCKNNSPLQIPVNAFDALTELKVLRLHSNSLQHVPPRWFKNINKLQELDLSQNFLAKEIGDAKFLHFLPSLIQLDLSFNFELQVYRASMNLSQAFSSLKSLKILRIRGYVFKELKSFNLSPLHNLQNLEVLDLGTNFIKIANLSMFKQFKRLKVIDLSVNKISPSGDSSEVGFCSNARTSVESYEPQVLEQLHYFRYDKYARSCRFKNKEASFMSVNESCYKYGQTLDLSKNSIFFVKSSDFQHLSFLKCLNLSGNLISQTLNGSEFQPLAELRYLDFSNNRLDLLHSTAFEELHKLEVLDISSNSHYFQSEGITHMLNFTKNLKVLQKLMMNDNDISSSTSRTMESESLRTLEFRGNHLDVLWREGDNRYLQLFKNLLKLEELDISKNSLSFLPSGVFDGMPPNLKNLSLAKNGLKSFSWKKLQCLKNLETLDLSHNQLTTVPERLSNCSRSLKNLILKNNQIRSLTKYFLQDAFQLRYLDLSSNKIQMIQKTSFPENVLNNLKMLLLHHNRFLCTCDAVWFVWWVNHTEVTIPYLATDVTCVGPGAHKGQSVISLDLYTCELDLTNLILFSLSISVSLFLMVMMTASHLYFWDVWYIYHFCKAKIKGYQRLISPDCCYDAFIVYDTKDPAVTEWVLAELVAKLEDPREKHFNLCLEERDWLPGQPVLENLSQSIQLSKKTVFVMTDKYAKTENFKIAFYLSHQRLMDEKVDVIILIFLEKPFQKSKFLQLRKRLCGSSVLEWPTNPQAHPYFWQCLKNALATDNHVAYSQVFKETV

[3] = molecular target: human TLR8 (Homo sapiens (Human), UniProt Q9NR97); test: TLR8 inhibition reporter assay (HEK-Blue SEAP);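 note: SEAP driven by IFN-β minimal promoter with five NF-κB and AP-1 sites, compounds tested 0.05 nM to 50 µM, 22 h incubation, inhibition relative to agonist plus DMSO wells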
Sequence of human TLR8 (Q9NR97 27-1041): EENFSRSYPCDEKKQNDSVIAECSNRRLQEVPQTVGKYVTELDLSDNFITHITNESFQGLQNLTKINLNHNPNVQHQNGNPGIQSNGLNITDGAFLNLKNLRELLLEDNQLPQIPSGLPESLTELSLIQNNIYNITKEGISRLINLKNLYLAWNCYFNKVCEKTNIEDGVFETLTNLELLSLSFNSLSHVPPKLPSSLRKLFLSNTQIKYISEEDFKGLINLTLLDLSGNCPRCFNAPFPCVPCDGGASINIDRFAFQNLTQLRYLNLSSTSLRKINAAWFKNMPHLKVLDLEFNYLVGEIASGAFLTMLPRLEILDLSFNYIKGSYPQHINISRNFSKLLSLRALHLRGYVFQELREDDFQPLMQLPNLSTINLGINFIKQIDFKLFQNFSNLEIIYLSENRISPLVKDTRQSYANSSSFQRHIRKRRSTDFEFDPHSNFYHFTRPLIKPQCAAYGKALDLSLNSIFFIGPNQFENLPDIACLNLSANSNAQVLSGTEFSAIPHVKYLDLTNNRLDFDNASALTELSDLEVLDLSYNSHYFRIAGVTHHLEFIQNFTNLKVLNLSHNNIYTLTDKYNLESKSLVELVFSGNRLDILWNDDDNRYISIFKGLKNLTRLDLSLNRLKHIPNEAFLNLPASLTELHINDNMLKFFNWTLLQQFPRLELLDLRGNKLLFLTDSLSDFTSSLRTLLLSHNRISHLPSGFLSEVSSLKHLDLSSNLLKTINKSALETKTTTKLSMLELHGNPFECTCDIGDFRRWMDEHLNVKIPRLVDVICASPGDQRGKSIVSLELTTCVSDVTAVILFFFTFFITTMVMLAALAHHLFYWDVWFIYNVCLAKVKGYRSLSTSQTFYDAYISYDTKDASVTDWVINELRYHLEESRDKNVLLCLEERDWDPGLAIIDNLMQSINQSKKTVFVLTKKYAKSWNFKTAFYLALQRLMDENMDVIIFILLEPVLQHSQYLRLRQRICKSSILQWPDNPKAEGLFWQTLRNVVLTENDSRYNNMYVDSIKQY

[4] = read-out: TLR9 IC50; HEK-Blue cells overexpressing human TLR9, ODN2006 5 nM stimulation, SEAP reporter
[5] = read-out: TLR8 IC50; HEK-Blue cells overexpressing human TLR8, R848 15.9 μM stimulation, SEAP reporter
[6] = read-out: TLR9 IC50; HEK-Blue cells overexpressing human TLR9; ODN2006 5 nM stimulation; SEAP reporter
[7] = read-out: TLR8 IC50; HEK-Blue cells overexpressing human TLR8; R848 15.9 μM stimulation; SEAP reporter

SMILES | IC50 [1, 4] | IC50 [2] | IC50 [3, 5] | IC50 [1, 6] | IC50 [3, 7]
Cc1cc(-c2[nH]c3cnc(C4CCC(NCC(C)(C)O)CC4)c(F)c3c2C(C)C)cn2ncnc12 (stereo not drawn) [Example 49] | 2430 nM | 0.46 nM | 0.62 nM | – | –
COc1cc(-c2[nH]c3cnc(C4CCN(C(C)C)CC4)c(F)c3c2C(C)C)cn2ncnc12 [Example 18] | 1790 nM | 0.76 nM | 2.6 nM | – | –
COc1cc(-c2[nH]c3cnc(N4CCN(C5CCN(C(C)C)CC5)CC4)c(F)c3c2C(C)C)cn2ncnc12 [Example 388] | 1890 nM | 2.7 nM | 0.81 nM | – | –
COc1cc(-c2[nH]c3cnc(C4CCC(N(C)C5COC5)CC4)c(F)c3c2C(C)C)cn2ncnc12 (stereo not drawn) [Example 106] | 1950 nM | 4.9 nM | 5 nM | – | –
COc1cc(-c2[nH]c3cnc(C4CCN(CC(F)(F)F)CC4)c(F)c3c2C(C)C)cn2ncnc12 [Example 127] | > 50000 nM | 47 nM | 150 nM | – | –
Cc1cc(-c2[nH]c3cnc(C4CCN(C5COC5)CC4)c(F)c3c2C(C)C)cc(C)n1 [Example 251] | 14800 nM | 15 nM | 23 nM | – | –
Cc1c(N2CCC(NCC3(C)COC3)CC2)ncc2[nH]c(-c3cc(C)c4ncnn4c3)c(C(C)C)c12 [Example 170] | 2290 nM | 0.42 nM | 0.71 nM | – | –
Cc1c(-c2[nH]c3cnc(N4CCN(C5CCC5)C[C@H]4C)c(F)c3c2C(C)C)cn2ncnc2c1C [Example 458] | – | 2.5 nM | – | 16800 nM | 1.2 nM
COc1cc(-c2[nH]c3cnc(C4CCC(NCC(C)(C)C)CC4)c(F)c3c2C(C)C)cn2ncnc12 (stereo not drawn) [Example 229] | – | 8.7 nM | – | 1460 nM | 4.2 nM
CNC(=O)CN1CC2(C1)CN(c1ncc3[nH]c(-c4cc(OC)c5ncnn5c4)c(C(C)C)c3c1F)C2 [Example 356, 2-(6-(4-fluoro-3-isopropyl-2-(8-methoxy-[1,2,4]triazolo[1,5-a]pyridin-6-yl)-1H-pyrrolo[2,3-c]pyridin-5-yl)-2,6-diazaspiro[3.3]heptan-2-yl)-N-methylacetamide] | 18500 nM | 15 nM | 6.1 nM | – | –
COc1cc(-c2[nH]c3cnc(N4CCN(C5CCCOC5)CC4)c(F)c3c2C(C)C)cn2ncnc12 (single isomer, unassigned) [Example 386] | > 50000 nM | 26 nM | 6.8 nM | – | –
COc1cc(-c2[nH]c3cnc(N4CCNCC4)c(F)c3c2C(C)C)cn2ncnc12 [Example 353, 6-(4-fluoro-3-isopropyl-5-(piperazin-1-yl)-1H-pyrrolo[2,3-c]pyridin-2-yl)-8-methoxy-[1,2,4]triazolo[1,5-a]pyridine] | 2530 nM | 0.61 nM | 1.4 nM | – | –
COc1cc(-c2[nH]c3cnc(N4CC5(CN(C(=O)CN6CCOCC6)C5)C4)c(F)c3c2C(C)C)cn2ncnc12 [Example 367, 1-(6-(4-fluoro-3-isopropyl-2-(8-methoxy-[1,2,4]triazolo[1,5-a]pyridin-6-yl)-1H-pyrrolo[2,3-c]pyridin-5-yl)-2,6-diazaspiro[3.3]heptan-2-yl)-2-morpholinoethan-1-one] | > 50000 nM | 159 nM | 52 nM | – | –
CNC(=O)CN(C)C1CCC(c2cc3c(C(C)C)c(-c4cc(OC)c5ncnn5c4)[nH]c3cn2)CC1 (stereo not drawn) [Example 338] | 1110 nM | 3.4 nM | 30 nM | – | –
Cc1c(-c2[nH]c3cnc(C4CCC(NC[C@@H](F)C(C)(C)O)CC4)c(F)c3c2C(C)C)cn2ncnc2c1C (stereo partly drawn) [Example 240] | 2780 nM | 0.96 nM | 0.39 nM | – | –
Cc1c(-c2[nH]c3cnc(C4CCNCC4)cc3c2C(C)C)cn2ncnc2c1C [Example 28] | 608 nM | 13 nM | 26 nM | – | –
COc1cc(-c2[nH]c3cnc(C4CCC(NC[C@@H](F)C(C)(C)O)CC4)c(C)c3c2C(C)C)cn2ncnc12 (stereo partly drawn) [Example 89] | 435 nM | 6.5 nM | 4.9 nM | – | –
Cc1c(-c2[nH]c3cnc(N4CCC(NC(C)C)CC4)c(C)c3c2C(C)C)cn2ncnc2c1C [Example 113] | 510 nM | 0.72 nM | 0.57 nM | – | –
COc1cc(-c2[nH]c3cnc(N4CC5(C4)CN(C(C)C)C5)c(F)c3c2C(C)C)cn2ncnc12 [Example 373] | 5820 nM | 8.1 nM | 7.1 nM | – | –
COc1cc(-c2[nH]c3cnc(N4CCN(CCS(C)(=O)=O)C[C@H]4C)c(F)c3c2C(C)C)cn2ncnc12 [Example 450] | – | 12 nM | – | > 50000 nM | 39 nM
COc1cc(-c2[nH]c3cnc(C4CCC(N(C)C(C)C)CC4)c(F)c3c2C(C)C)cn2ncnc12 (stereo not drawn) [Example 76] | 959 nM | 0.58 nM | 3.8 nM | – | –
Cc1c(-c2[nH]c3cnc(N4CCN(CC(=O)N(C)C)CC4)c(F)c3c2C(C)C)cn2ncnc2c1C [Example 428] | 39500 nM | 12 nM | 1.1 nM | – | –
COc1cc(-c2[nH]c3cnc(N4CCC(NC[C@@H](F)C(C)(C)O)CC4)c(C)c3c2C(C)C)cn2ncnc12 [Example 64] | 2790 nM | 4.2 nM | 1.5 nM | – | –
COc1cc(-c2[nH]c3cnc(C4CCC(NCC(C)(C)F)CC4)c(C)c3c2C(C)C)cn2ncnc12 (stereo not drawn) [Example 244] | 583 nM | 8.9 nM | 16 nM | – | –

SMILES | IC50 [1, 4] | IC50 [2] | IC50 [3, 5] | IC50 [1, 6] | IC50 [3, 7]
CNC(=O)CN(C)C1CCN(c2ncc3[nH]c(-c4cc(OC)c5ncnn5c4)c(C(C)C)c3c2F)CC1 [Example 221] | – | 1.1 nM | – | 2570 nM | 0.7 nM
COc1cc(-c2[nH]c3cnc(C4CCN(C(C)C)CC4)c(C)c3c2C(C)C)cn2ncnc12 [Example 33] | 134 nM | 1.4 nM | 6.9 nM | – | –
Cc1c(-c2[nH]c3cnc(C4CCC(NC(C)C)CC4)c(C)c3c2C(C)C)cn2ncnc2c1C (stereo not drawn) [Example 277] | 265 nM | 5.5 nM | 13 nM | – | –
CNC(=O)CN(C)C1CCC(c2cc3c(C(C)C)c(-c4cc(OC)c5ncnn5c4)[nH]c3cn2)CC1 (stereo not drawn) [Example 328] | 1390 nM | 11 nM | 60 nM | – | –
COc1cc(-c2[nH]c3cnc(C4CCC(NC(C)C)CC4)c(F)c3c2C(C)C)cn2ncnc12 (stereo not drawn) [Example 73] | 2960 nM | 0.87 nM | 0.77 nM | – | –
Cc1c(-c2[nH]c3cnc(C4CCC(N5CCC5)CC4)cc3c2C(C)C)cn2ncnc2c1C (stereo not drawn) [Example 335] | 669 nM | 4.3 nM | 42 nM | – | –
Cc1cc(-c2[nH]c3cnc(N4CCC(NC5(C)COC5)CC4)c(F)c3c2C(C)C)cn2ncnc12 [Example 43] | 12700 nM | 1 nM | 0.6 nM | – | –
Cc1c(-c2[nH]c3cnc(N4CCN(CC(C)(C)C)CC4)c(F)c3c2C(C)C)cn2ncnc2c1C [Example 432] | > 50000 nM | 102 nM | 2.7 nM | – | –
COc1cc(-c2[nH]c3cnc(C4CCC(NCC5(C)COC5)CC4)c(C)c3c2C(C)C)cn2ncnc12 (stereo not drawn) [Example 270] | 392 nM | 2.6 nM | 3.2 nM | – | –
CC(=O)N1CCN(c2ncc3[nH]c(-c4cn5ncnc5c(C)c4C)c(C(C)C)c3c2F)CC1 [Example 427] | > 50000 nM | 35 nM | 37 nM | – | –
Cc1cc(-c2[nH]c3cnc(C4CCC(NCC(C)(C)O)CC4)c(F)c3c2C(C)C)cn2ncnc12 (stereo not drawn) [Example 164] | 1800 nM | 6.2 nM | 4.6 nM | – | –
COc1cc(-c2[nH]c3cnc(C4CCC(NCC(C)(C)C)C4)cc3c2C(C)C)cn2ncnc12 (stereo not drawn) [Example 60] | 502 nM | 5 nM | 1.2 nM | – | –
COc1cc(-c2[nH]c3cnc(C4CCC(NC5COC5)CC4)cc3c2C(C)C)cn2ncnc12 (stereo not drawn) [Example 308] | 159 nM | 7.9 nM | 25 nM | – | –
COc1cc(-c2[nH]c3cnc(N4CCN(C5CCC5)C[C@H]4C)c(F)c3c2C(C)C)cn2ncnc12 [Example 441] | 7320 nM | 4 nM | 11 nM | – | –
COc1cc(-c2[nH]c3cnc(C4CCC(NC(C)C)CC4)cc3c2C(C)C)cn2ncnc12 (stereo not drawn) [Example 323] | 258 nM | 4.5 nM | 20 nM | – | –
Cc1c(-c2[nH]c3cnc(N4CCN(CC5CCOCC5)CC4)c(F)c3c2C(C)C)cn2ncnc2c1C [Example 411] | 11200 nM | 9.6 nM | 0.18 nM | – | –
Cc1c(-c2[nH]c3cnc(C4CCC(NC5CCOCC5)CC4)c(C)c3c2C(C)C)cn2ncnc2c1C (stereo not drawn) [Example 119] | 558 nM | 8.1 nM | 11 nM | – | –
COc1cc(-c2[nH]c3cnc(N4CC5(CN(CC6CCOCC6)C5)C4)c(F)c3c2C(C)C)cn2ncnc12 [Example 371] | 5480 nM | 9 nM | 5.9 nM | – | –
COc1cc(-c2[nH]c3cnc(N4CCN(C(=O)CN(C)C)CC4)c(F)c3c2C(C)C)cn2ncnc12 [compound 368] | 5890 nM | 1.3 nM | 2.3 nM | – | –
Cc1c(-c2[nH]c3cnc(N4CCN(CCS(C)(=O)=O)C[C@H]4C)c(F)c3c2C(C)C)cn2ncnc2c1C [Example 463] | – | 9 nM | – | 38800 nM | 5.2 nM
Cc1cc(-c2[nH]c3cnc(C4CCC(N5CC6(COC6)C5)CC4)c(F)c3c2C(C)C)cn2ncnc12 (stereo not drawn) [Example 133] | 1360 nM | 0.52 nM | 1.2 nM | – | –
COc1cc(-c2[nH]c3cnc(C4CCC(NCC(C)(C)F)CC4)c(C)c3c2C(C)C)cn2ncnc12 (stereo not drawn) [Example 271] | 333 nM | 1.6 nM | 4.2 nM | – | –
COc1cc(-c2[nH]c3cnc(N4CCN(CC5CC5)CC4)c(F)c3c2C(C)C)cn2ncnc12 [Example 390] | 4060 nM | 2.3 nM | 0.15 nM | – | –
